This is an account of results in US20170369492A1 (Takeda Pharmaceutical Company Limited, priority 2014, published 2017).

This assay concerns the target T1, human GPR43 (Homo sapiens, UniProt O15552).
T1 construct: expressed in transfected cells
T1 sequence (O15552 1-330): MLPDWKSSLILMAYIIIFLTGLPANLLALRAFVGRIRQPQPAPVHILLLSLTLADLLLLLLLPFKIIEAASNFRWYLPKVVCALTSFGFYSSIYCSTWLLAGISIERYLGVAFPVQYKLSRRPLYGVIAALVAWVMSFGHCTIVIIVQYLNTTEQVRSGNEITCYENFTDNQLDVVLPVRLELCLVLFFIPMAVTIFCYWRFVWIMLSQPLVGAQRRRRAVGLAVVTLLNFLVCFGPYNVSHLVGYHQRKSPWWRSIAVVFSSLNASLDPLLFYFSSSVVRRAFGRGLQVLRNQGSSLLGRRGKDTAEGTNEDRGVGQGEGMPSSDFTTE
As to the kind of experiment: Ca-Flux Functional Assay: Determination of Agonist/Positive Allosteric Modulator (PAM) Activity. In kind it is cell-based. The settings on record: CHO-K1 Gα16 cells stably expressing human GPR43; compound added in the presence of EC20 sodium acetate; intracellular Ca2+ by FLIPR; agonist/PAM activity not distinguished. As for the experimental part:
Ca-Flux Functional Assay: Determination of Agonist/Positive Allosteric Modulator (PAM) Activity
GPR43 agonist/PAM activity was determined by measuring changes in intracellular calcium levels using a Ca^2+ sensitive fluorescent dye. The changes in fluorescent signal were monitored by FLIPR (manufactured by Molecular Devices). GPR43 mediated increases in intracellular Ca^2+ concentration were readily detected upon activation with sodium acetate. Prior to the assay (24 hours), CHO-K1 Gα16 cells stably expressing human GPR43 were-seeded in cell culture medium in black, clear-bottom 384-well plates (Corning Inc) and grown overnight at 37° C., 5% CO2. On the day of the assay, cell culture media was removed and cells were loaded with Calcium 5 Dye (Molecular Devices) diluted in HBSS containing 25 mM HEPES, 2.5 mM Probenecid, 0.1% BSA for 1 hour at 37° C., 5% CO2. 10 point half log concentration response curves of sodium acetate from 10 mM were conducted prior to the testing of compounds to calculate the sodium acetate concentration that produces 20% of the maximal response (EC20). Test compounds (at to point half log concentration response curves from 10 μM) were added in the presence of sodium acetate to achieve a final concentration that produces approximately 20% maximal response as calculated from the previous experiment. The changes in fluorescent signal were monitored by FLIPR upon addition of the compound/EC20 sodium acetate mix. The EC50 values were determined from ten point concentration response curves. Curves were generated using the average of two wells for each data point.
The above assay detects both GPR43 receptor agonists and positive allosteric modulators of the GPR43 receptor, without distinguishing between the two. Activity in either regard is useful in the treatment of conditions associated with GPR43 receptor activity.

Take `CC1CCN(S(=O)(=O)c2c(N)n(C3CCCCC3)c3nccnc23)CC1` [Example 62, 5-cyclohexyl-7-((4-methylpiperidin-1-yl)sulfonyl)-5H-pyrrolo[2,3-b]pyrazin-6-amine]: the EC50 – broadly, the midpoint of the concentration-response curve – is 0.303 µM.
For `CN1CCN(S(=O)(=O)c2c(N)n(C3CCCCC3)c3nccnc23)CC1` [Example 63, 5-cyclohexyl-7-((4-methylpiperazin-1-yl)sulfonyl)-5H-pyrrolo[2,3-b]pyrazin-6-amine] the value was 7.95 µM; for `COC1CN(S(=O)(=O)c2c(N)n(C3CCCCC3)c3nccnc23)C1` [Example 64, 5-cyclohexyl-7-((3-methoxyazetidin-1-yl)sulfonyl)-5H-pyrrolo[2,3-b]pyrazin-6-amine], 7.13 µM; for `CCOC1CCN(S(=O)(=O)c2c(N)n(C3CCCCC3)c3nccnc23)CC1` [Example 65, 5-cyclohexyl-7-((4-ethoxypiperidin-1-yl)sulfonyl)-5H-pyrrolo[2,3-b]pyrazin-6-amine], 0.21 µM.
Next, `CC1(C)CCN(S(=O)(=O)c2c(N)n(C3CCCCC3)c3nccnc23)CC1` [Example 66, 5-cyclohexyl-7-((4,4-dimethylpiperidin-1-yl)sulfonyl)-5H-pyrrolo[2,3-b]pyrazin-6-amine]: 0.327 µM.
For `CC1CCN(S(=O)(=O)c2c(N)n(C3CCCCC3)c3nccnc23)C1` (stereo not shown) [Example 67, 5-cyclohexyl-7-((3-methylpyrrolidin-1-yl)sulfonyl)-5H-pyrrolo[2,3-b]pyrazin-6-amine] the value was 0.83 µM; for `CC1CCCN1S(=O)(=O)c1c(N)n(C2CCCCC2)c2nccnc12` (stereo not shown) [Example 68, 5-cyclohexyl-7-((2-methylpyrrolidin-1-yl)sulfonyl)-5H-pyrrolo[2,3-b]pyrazin-6-amine], 1.47 µM.
For `Nc1c(S(=O)(=O)N2CCC(F)(F)CC2)c2nccnc2n1C1CCCCC1` [Example 69, 5-cyclohexyl-7-((4,4-difluoropiperidin-1-yl)sulfonyl)-5H-pyrrolo[2,3-b]pyrazin-6-amine], the EC50 worked out at 0.547 µM.
Next, `Nc1c(S(=O)(=O)NCc2ccccc2)c2nccnc2n1C1CCCCC1` [Example 70, 6-amino-N-benzyl-5-cyclohexyl-5H-pyrrolo[2,3-b]pyrazine-7-sulfonamide]: 3.28 µM; `CN(C1CCCCC1)S(=O)(=O)c1c(N)n(C2CCCCC2)c2nccnc12` [Example 71, 6-amino-N,5-dicyclohexyl-N-methyl-5H-pyrrolo[2,3-b]pyrazine-7-sulfonamide]: 8.38 µM; `Nc1c(S(=O)(=O)N2CCCOCC2)c2nccnc2n1C1CCCCC1` [Example 72, 5-cyclohexyl-7-(1,4-oxazepane-4-sulfonyl)-5H-pyrrolo[2,3-b]pyrazin-6-amine]: 1.8 µM.
In the case of `COC1CCN(S(=O)(=O)c2c(N)n(C3CCCCC3)c3nccnc23)CC1` [Example 73, 5-cyclohexyl-7-(4-methoxypiperidine-1-sulfonyl)-5H-pyrrolo[2,3-b]pyrazin-6-amine], the EC50 stood at 0.488 µM.
For `Nc1c(S(=O)(=O)NCC2CCC2)c2nccnc2n1C1CCCCC1` [Example 74, 6-amino-N-(cyclobutylmethyl)-5-cyclohexyl-5H-pyrrolo[2,3-b]pyrazine-7-sulfonamide] the value was 0.321 µM.
Next, `CC1(C)CCN(S(=O)(=O)c2c(N)n(C3CCCCC3)c3nccnc23)C1` [Example 75, 5-cyclohexyl-7-(3,3-dimethylpyrrrolidine-1-sulfonyl)-5H-pyrrolo[2,3-b]pyrazin-6-amine]: 1.19 µM; `Nc1c(S(=O)(=O)N2CCCCCC2)c2nccnc2n1C1CCCCC1` [Example 77, 7-(azepane-1-sulfonyl)-5-cyclohexyl-5H-pyrrolo[2,3-b]pyrazin-6-amine]: 0.29 µM.
Consider `Nc1c(S(=O)(=O)N2CCSCC2)c2nccnc2n1C1CCCCC1` [Example 78, 5-cyclohexyl-7-(thiomorpholine-4-sulfonyl)-5H-pyrrolo[2,3-b]pyrazin-6-amine], for which the concentration for a half-maximal effect (EC50) worked out at 0.337 µM.
Next, `CC(=O)N(C)C1CCN(S(=O)(=O)c2c(N)n(C3CCCCC3)c3nccnc23)CC1` [Example 79, N-(1-{6-amino-5-cyclohexyl-5H-pyrrolo[2,3-b]pyrazine-7-sulfonyl}piperidin-4-yl)-N-methylacetamide]: 5.97 µM; `Nc1c(S(=O)(=O)NCC2COC2)c2nccnc2n1C1CCCCC1` [Example 80, 6-amino-5-cyclohexyl-N-(oxetan-3-ylmethyl)-5H-pyrrolo[2,3-b]pyrazine-7-sulfonamide]: 6.07 µM; `Nc1c(S(=O)(=O)N2CCC(Cc3ccccc3)CC2)c2nccnc2n1C1CCCCC1` [Example 81, 7-(4-benzylpiperidine-1-sulfonyl)-5-cyclohexyl-5H-pyrrolo[2,3-b]pyrazin-6-amine]: 1.25 µM.
For `Nc1c(S(=O)(=O)NCCC(F)(F)F)c2nccnc2n1C1CCCCC1` [Example 82, 6-amino-5-cyclohexyl-N-(3,3,3-trifluoropropyl)-5H-pyrrolo[2,3-b]pyrazine-7-sulfonamide] the value was 0.821 µM; for `Nc1c(S(=O)(=O)N2CCC(c3ccccc3)CC2)c2nccnc2n1C1CCCCC1` [Example 83, 5-cyclohexyl-7-(4-phenylpiperidine-1-sulfonyl)-5H-pyrrolo[2,3-b]pyrazin-6-amine], 0.931 µM.
Next, `Nc1c(S(=O)(=O)NCCc2ccccc2)c2nccnc2n1C1CCCCC1` [Example 84, 6-amino-5-cyclohexyl-N-(2-phenylethyl)-5H-pyrrolo[2,3-b]pyrazine-7-sulfonamide]: 3.29 µM; `Nc1c(S(=O)(=O)N2CCC(Oc3ccccc3)CC2)c2nccnc2n1C1CCCCC1` [Example 85, 5-cyclohexyl-7-(4-phenoxypiperidine-1-sulfonyl)-5H-pyrrolo[2,3-b]pyrazin-6-amine]: 1.06 µM; `Nc1c(S(=O)(=O)N2CCC(c3ccccc3)C2)c2nccnc2n1C1CCCCC1` (stereo not shown) [Example 86, 5-cyclohexyl-7-(3-phenylpyrrolidine-1-sulfonyl)-5H-pyrrolo[2,3-b]pyrazin-6-amine]: 1.72 µM.
Regarding `Nc1c(S(=O)(=O)N2CCC(C(F)(F)F)CC2)c2nccnc2n1C1CCCCC1` [Example 87, 5-cyclohexyl-7-[4-(trifluoromethyl)piperidine-1-sulfonyl]-5H-pyrrolo[2,3-b]pyrazin-6-amine], the EC50 was 1.55 µM.
For `COCC1CCN(S(=O)(=O)c2c(N)n(C3CCCCC3)c3nccnc23)C1` (stereo not shown) [Example 88, 5-cyclohexyl-7-[3-(methoxyrnethyl)pyrrolidine-1-sulfonyl]-5H-pyrrolo[2,3-b]pyrazin-6-amine] the value was 3.15 µM; for `Nc1c(S(=O)(=O)NCC2CC2)c2nccnc2n1C1CCCCC1` [Example 89, 6-amino-5-cyclohexyl-N-(cyclopropylmethyl)-5H-pyrrolo[2,3-b]pyrazine-7-sulfonamide], 0.658 µM.
For `COCCNS(=O)(=O)c1c(N)n(C2CCCCC2)c2nccnc12` [Example 90, 6-amino-5-cyclohexyl-N-(2-methoxyethyl)-5H-pyrrolo[2,3-b]pyrazine-7-sulfonamide] the value was 6.18 µM; for `COC1CCN(S(=O)(=O)c2c(N)n(C3CCCCC3)c3nccnc23)C1` (stereo not shown) [Example 91, 5-cyclohexyl-7-(3-methoxypyrrolidine-1-sulfonyl)-5H-pyrrolo[2,3-b]pyrazin-6-amine], 8.35 µM; for `CC1(C)CCCN(S(=O)(=O)c2c(N)n(C3CCCCC3)c3nccnc23)C1` [Example 92, 5-cyclohexyl-7-(3,3-dimethylpiperidine-1-sulfonyl)-5H-pyrrolo[2,3-b]pyrazin-6-amine], 0.44 µM.
For `Nc1c(S(=O)(=O)N2CCC(O)CC2)c2nccnc2n1C1CCCCC1` [Example 93, 1-{6-amino-5-cyclohexyl-5H-pyrrolo[2,3-b]pyrazine-7-sulfonyl}piperidin-4-ol] the value was 5.7 µM; for `Nc1c(S(=O)(=O)N2CCc3ccccc3C2)c2nccnc2n1C1CCCCC1` [Example 94, 5-cyclohexyl-7-(1,2,3,4-tetrahydroisoquinoline-2-sulfonyl)-5H-pyrrolo[2,3-b]pyrazin-6-amine], 0.308 µM.
For the compound `CCC(C)NS(=O)(=O)c1c(N)n(C2CCCCC2)c2nccnc12` (stereo not shown) [Example 95, 6-amino-N-(butan-2-yl)-5-cyclohexyl-5H-pyrrrolo[2,3-b]pyrazine-7-sulfonamide], the EC50 came to 0.334 µM.
For `Nc1c(S(=O)(=O)NCC2CCCO2)c2nccnc2n1C1CCCCC1` (stereo not shown) [Example 96, 6-amino-5-cyclohexyl-N-(oxolan-2-ylmethyl)-5H-pyrrolo[2,3-b]pyrazine-7-sulfonamide] the value was 1.95 µM.
